The subject of the assay is Septoria tritici. Put plainly: Microtiter plate test, activity against Septoria tritici (leaf blotch on wheat). It counts as cell-based. Conditions: MTP, absorption at 405 nm 7 days after inoculation, 18° C. The protocol:
The active compounds were formulated separately as a stock solution having a concentration of 10000 ppm in dimethyl sulfoxide.
Activity Against Septoria tritici, the Causal Agent of Leaf Blotch on Wheat
The stock solutions were mixed according to the ratio, pipetted onto a micro titer plate (MTP) and diluted with water to the stated concentrations. A spore suspension of Septoria tritici in an aqueous biomalt solution was then added. The plates were placed in a water vapor-saturated chamber at a temperature of 18° C. Using an absorption photometer, the MTPs were measured at 405 nm 7 days after the inoculation.
The measured parameters were compared to the growth of the active compound-free control variant (100%) and the fungus-free and active compound-free blank value to determine the relative growth in % of the pathogens in the respective active compounds.
The expected efficacies of active compound combinations were determined using Colby's formula (Colby, S. R., Calculating synergistic and antagonistic responses of herbicide combinations, Weeds, 15, pp. 20-22, 1967) and compared with the observed efficacies. […]

Turning to `O=C(Nc1ccccc1-c1ccc(Cl)cc1)c1cccnc1Cl` [Boscalid, boscalid], the Observed efficacy (0.25 ppm) worked out at 34%. On to `CC1(C)C(C=C(Cl)Cl)C1C(=O)OC(C#N)c1cccc(Oc2ccccc2)c1` (stereo not drawn) [alpha-Cypermethrin, alpha-cypermethrin], for which the Observed efficacy (1 ppm) came out at 2%.

For the origin of these results see US20120322654A1, “SYNERGISTIC FUNGICIDAL MIXTURES” (BASF SE, priority 2010, published 2012).
